{"source": "patent US11364285B2", "about": "“Methods, compositions, and molecular targets that exploit synergies and symbioses in the termite gut” (priority 2016, dated 2022)", "key": {"[1]": {"test_system": "host gut and protist/symbiont genes", "type": "in vivo", "protocol": "After two days, a subset of ten termites was removed from each of the replicate colony treatments (20 total samples), cold-immobilized, surface-sterilized by a serial rinse in 0.3% sodium hypochlorite (1×) and sterilized water (2×), and dissected on Parafilm to collect digestive tracts, including salivary glands. Digestive tracts were transferred into RLA Lysis Buffer (Promega, Fitchburg, Wis., USA) and stored at −70° C. until RNA isolation. RNA extraction and cDNA synthesis was performed.\nExperiments were designed after MIAME guidelines. A type II microarray design was used with a common-reference strategy. The common reference consisted of a normalized blend of all RNA samples included in the experiment. This common reference was co-hybridized against each replicate sample on single microarrays. Dye swaps were performed between replicate samples and references to check for potential dye impacts on spot intensity. […] Specifically, such microarrays contained a mix of ˜14,500 cDNA oligonucleotides representing 10,500 host gut and protist/symbiont genes, including stereotypical immune response genes, thereby providing simultaneous assessments of host and protist gene expression. Reported analyses consisted of five pairwise comparisons to a common control as denoted by the numbers 1-5 in FIG. 4. More specific microarray data are provided in S15-S20 Tables of Sen et al. 2015, PLoS ONE 10(4): e0123391 (the “Sen Article”), which is hereby incorporated by reference herein in its entirety. […] Genbank accession numbers for sequences at each microarray position are provided in S21-S23 Tables of the Sen Article.\nBefore comparative analysis, the individual signal intensity values obtained from the microarray probes were log-transformed (using 2 as the base) and normalized among all individual samples included in the study. […] After the data were normalized, t-tests were used to make probe-by-probe comparisons among treatments. In each comparison, a p-value and fold change were computed for all microarray loci. In addition to p-values, q-values were computed. While the p-value measures the minimum statistical false-positive rate incurred when setting a threshold for test significance, the q-value measures the minimum false-discovery rate incurred when calling that test significant.\nThe generated contigs and the remaining orphan sequences were used for further analyses using the program BLAST2GO for identification and annotation. By using the inbuilt BLASTx algorithm, these sequences were used as queries in BLASTx searches against the Genbank non-redundant (nr) database with an e-value cut-off of ≤1e-03. The putative identification, annotation, and Gene Ontology (GO) terms for the sequences also were obtained through BLAST2GO. KEGG analyses were also performed."}, "[2]": {"test_system": "aerobic, culturable bacterial community from the R. flavipes digestive tract", "assay": "Imidacloprid-loaded discs on plated gut homogenates", "type": "cell-based", "details": "concentrations of 1-1000-fold higher than used in the feeding assays", "protocol": "(§1) After incubation at 26° C. for 24 hours, plates were examined—spots producing 3-10 CFUs were used to estimate the total number of aerobic culturable bacteria per termite. In addition, dilutions of gut homogenates were directly plated onto nutrient agar; discs loaded with serial dilutions of imidacloprid were added to these plates to examine its direct impact on the culturable bacteria."}, "[3]": {"test_system": "gut bacteria (16S rDNA abundance)", "assay": "16S qPCR of relative bacterial DNA abundance in guts", "type": "in vivo, R. flavipes", "details": "48 hours exposure; two colonies", "protocol": "as §1\nDNA was isolated from termite whole guts following control or imidacloprid treatments in bioassays using the Epicentre Yeast DNA extraction kit, including RNase treatment (Madison, Wis.). Following isolation, DNA samples were subjected to phenol-chloroform cleanup and concentrated using sodium acetate-ethanol precipitation. qPCR reactions were performed in triplicate with SensiFast SYBR No ROX kit (Bioline; Taunton, Mass.), 50 ng of sample DNA, nuclease-free water, and degenerate 16S rDNA primers. Primers amplified a 291 bp fragment containing the V4 hypervariable region of the 16S rRNA gene. Host DNA was quantified using primers specific to an apparent single-copy host gene, Actin 5C-1. Data were normalized to Actin 5C-1 to determine the relative abundance of 16S amplicons in the control and imidacloprid-treated DNA preparations."}, "[4]": {"test_system": "hindgut protist symbiont populations", "assay": "Protist counts after imidacloprid treatment", "type": "in vivo, R. flavipes", "details": "48 hr imidacloprid exposure", "protocol": "To determine if imidacloprid indirectly or directly impacted protist and bacteria gut symbiont populations, post-hoc tests were performed using multiple independent termite colonies. Protist counts were made using five laboratory colonies as previously described. Bacterial CFU counts were done via aerobic culturing using two laboratory colonies; one that had been in the lab for >2 years (“colony 1”) and one collected from the field 1 month earlier (“colony 2”). […] Whole guts dissected from individual termites were sonicated in 250 μL of PBS, serially diluted, and spotted (2 μL) onto nutrient agar plates."}, "Reticulitermes flavipes": {"test_system": "Reticulitermes flavipes", "assay": "Termite behavior and pathology observed in the bioassays (grooming, tunneling, light repellency)", "type": "in vivo", "details": "sublethal concentration"}, "amidohydrolase 2 gene": {"test_system": "amidohydrolase 2 gene", "assay": "qPCR of amidohydrolase 2 expression after kanamycin treatment and B. bassiana challenge", "type": "in vivo, R. flavipes", "details": "5% kanamycin 48 h, then B. bassiana; compared to water treated controls", "description": "To investigate whether symbiont removal reduced amidohydrolase expression, groups of 10 workers from three independent colonies were subjected to a treatment of 5% kanamycin (controls received water only) for 48-hours and subsequently challenged with a low dose of B. bassiana conidia (as above). 5% Kanamycin was used for bacterial symbiont removal based on extensive preliminary research. These bioassays were held for 48-hours before termite guts were dissected for RNA extraction. cDNA was synthesized using the Bioline SensiFast cDNA Synthesis kit using 1 μg total RNA as template. qPCR was performed using the SensiFast no ROX SYBR Master Mix (Bioline) and amidohydrolase 2 gene specific primers as well as Actin 5C as a reference gene (see Table S.2 of the Peterson & Scharf Article)."}, "[5]": {"test_system": "termite workers challenged with B. bassiana", "assay": "Post-hoc bioassay of termite susceptibility to B. bassiana after kanamycin", "type": "in vivo, R. flavipes", "protocol": "Similarly, post-hoc bioassays were performed to determine if 5% kanamycin treatment was sufficient to increase termite susceptibility to B. bassiana. As above, groups of 10 termites were treated with 5% kanamycin or water (controls) for 48-hours, and then inoculated with a low dose of B. bassiana conidia suspended in 0.5% Tween-20 or a blank of 0.5% Tween-20 solution (controls). All together, these four groups allowed the investigators to account for any baseline mortality caused by antibiotic treatment. These bioassays were held for 7 days before scoring survivorship."}, "[6]": {"details": "gut, 2 days post-exposure, vs solvent control"}, "[7]": {"details": "passing array positions, before contig formation"}}}
{"smiles": "O=[N+]([O-])NC1=NCCN1Cc1ccc(Cl)nc1", "note": "[I, imidacloprid]", "values": [{"measurement": "Effect on expression of innate immune / antimicrobial genes", "setting": "[1]; gut, 2 days", "value": "failed to substantially alter"}, {"measurement": "Differentially expressed contigs and singletons, Overall", "setting": "[1]; [6]", "value": 393}, {"measurement": "Downregulated contigs and singletons, Host", "setting": "[1]; [6]", "value": 8}, {"measurement": "Downregulated contigs and singletons, Mixed", "setting": "[1]; [6]", "value": 3}, {"measurement": "Downregulated contigs and singletons, Symbiont", "setting": "[1]; [6]", "value": 205}, {"measurement": "Downregulated contigs and singletons, Totals", "setting": "[1]; [6]", "value": 216}, {"measurement": "Upregulated contigs and singletons, Mixed", "setting": "[1]; [6]", "value": 1}, {"measurement": "Upregulated contigs and singletons, Symbiont", "setting": "[1]; [6]", "value": 19}, {"measurement": "Upregulated contigs and singletons, Totals", "setting": "[1]; [6]", "value": 177}, {"measurement": "Downregulated array positions", "setting": "[1]; [7]", "value": 504}, {"measurement": "Upregulated transcripts in the array (array positions)", "setting": "[1]; [7]", "value": 260}, {"measurement": "Growth suppression of culturable gut bacteria by imidacloprid-impregnated paper discs", "setting": "[2]", "value": "failed to suppress the growth"}, {"measurement": "Effect on total bacterial DNA abundance (16S PCR signals)", "setting": "[3]", "value": "did not detect any impact"}, {"measurement": "Reduction of representative protist groups", "setting": "[4]", "value": "25-50%"}, {"measurement": "Treated termite colonies with reduced protist populations", "setting": "[4]", "value": "5 of 6"}, {"measurement": "Termite behaviors (tunneling, grooming, light repellency)", "setting": "Reticulitermes flavipes", "value": "neither produced tunnels nor were repelled by light"}]}
{"smiles": "NC[C@H]1O[C@H](O[C@H]2[C@H](O)[C@@H](O[C@H]3O[C@H](CO)[C@@H](O)[C@H](N)[C@H]3O)[C@H](N)C[C@@H]2N)[C@H](O)[C@@H](O)[C@@H]1O", "note": "[kanamycin]", "values": [{"measurement": "Reduction of amidohydrolase 2 gene expression in pathogen challenged termites", "setting": "amidohydrolase 2 gene", "value": "~5", "unit": "×"}, {"measurement": "Increase in termite susceptibility to B. bassiana", "setting": "[5]; 5% kanamycin 48 h, normalized mortality at 7 days post inoculation", "value": 3, "unit": "×"}, {"measurement": "Increase in termite worker susceptibility to B. bassiana", "setting": "[5]; 5% kanamycin, 7 days", "value": 3, "unit": "fold"}]}
